According to ChEMBL document CHEMBL3526058, “Investigating the enteroenteric recirculation of apixaban, a factor Xa inhibitor: administration of activated charcoal to bile duct-cannulated rats and dogs receiving an intravenous dose and use of drug transporter knockout rats” (Drug Metab Dispos, 2013):

How the values were obtained:
[1] = Cmax in Sprague-Dawley rat at 4 mg/kg, po administered 1 hr post GF-120918 treatment; type: ADME, organism-based; set-up: dose 4 mg/kg, route oral; conditions: in vivo, with GF-120918
[2] = Half life in Sprague-Dawley rat at 4 mg/kg, po administered 1 hr post GF-120918 treatment; type: ADME, organism-based; set-up: dose 4 mg/kg, route oral; conditions: in vivo, with GF-120918
[3] = Apparent oral clearance in Sprague-Dawley rat at 4 mg/kg, po administered 1 hr post GF-120918 treatment; type: ADME, organism-based; set-up: dose 4 mg/kg, route oral; conditions: in vivo, with GF-120918
[4] = Oral steady-state volume of distribution in Sprague-Dawley rat at 4 mg/kg administered 1 hr post GF-120918 treatment; type: ADME, organism-based; set-up: dose 4 mg/kg; conditions: in vivo, with GF-120918, read-out: Vss/F
[5] = Mean residence time in Sprague-Dawley rat at 4 mg/kg, po administered 1 hr post GF-120918 treatment; type: ADME, organism-based; set-up: dose 4 mg/kg, route oral; conditions: in vivo, with GF-120918
[6] = Oral bioavailability in Sprague-Dawley rat at 4 mg/kg administered 1 hr post GF-120918 treatment; type: ADME, organism-based; conditions: in vivo, with GF-120918
[7] = AUC (0 to 24 hrs) in beagle dog at 5 mg/kg, po; type: ADME, organism-based, Canis lupus familiaris; set-up: time < 24 hr, dose 5 mg/kg, route oral; conditions: plasma
[8] = Cmax in beagle dog at 5 mg/kg, po; type: ADME, organism-based, Canis lupus familiaris; set-up: dose 5 mg/kg, route oral; conditions: in vivo
[9] = Plasma concentration in beagle dog at 5 mg/kg, po at 8 hrs; type: ADME, organism-based, Canis lupus familiaris; set-up: dose 5 mg/kg, route oral
[10] = Half life in beagle dog at 5 mg/kg, po; type: ADME, organism-based, Canis lupus familiaris; set-up: dose 5 mg/kg, route oral; conditions: in vivo
[11] = Apparent oral clearance in beagle dog at 5 mg/kg, po; type: ADME, organism-based, Canis lupus familiaris; set-up: dose 5 mg/kg, route oral; conditions: in vivo
[12] = Oral steady-state volume of distribution in beagle dog at 5 mg/kg; type: ADME, organism-based, Canis lupus familiaris; set-up: dose 5 mg/kg; conditions: in vivo, read-out: Vss/F
[13] = Mean residence time in beagle dog at 5 mg/kg, po; type: ADME, organism-based, Canis lupus familiaris; set-up: dose 5 mg/kg, route oral; conditions: in vivo
[14] = Oral bioavailability in beagle dog at 5 mg/kg; type: ADME, organism-based, Canis lupus familiaris; conditions: in vivo
[15] = AUC (0 to 24 hrs) in beagle dog at 5 mg/kg, po followed by activated charcoal administration 0.25 hrs post compound dosing; type: ADME, organism-based, Canis lupus familiaris; set-up: time < 24 hr, dose 5 mg/kg, route oral; conditions: plasma
[16] = Cmax in beagle dog at 5 mg/kg, po followed by activated charcoal administration 0.25 hrs post compound dosing; type: ADME, organism-based, Canis lupus familiaris; set-up: dose 5 mg/kg, route oral; conditions: in vivo
[17] = Plasma concentration in beagle dog at 5 mg/kg, po followed by activated charcoal administration 0.25 hrs post compound dosing measured at 8 hrs; type: ADME, organism-based, Canis lupus familiaris; set-up: dose 5 mg/kg, route oral
[18] = Half life in beagle dog at 5 mg/kg, po followed by activated charcoal administration 0.25 hrs post compound dosing; type: ADME, organism-based, Canis lupus familiaris; set-up: dose 5 mg/kg, route oral; conditions: in vivo
[19] = Apparent oral clearance in beagle dog at 5 mg/kg, po followed by activated charcoal administration 0.25 hrs post compound dosing; type: ADME, organism-based, Canis lupus familiaris; set-up: dose 5 mg/kg, route oral; conditions: in vivo
[20] = Oral steady-state volume of distribution in beagle dog at 5 mg/kg followed by activated charcoal administration 0.25 hrs post compound dosing; type: ADME, organism-based, Canis lupus familiaris; set-up: dose 5 mg/kg; conditions: in vivo, read-out: Vss/F
[21] = Mean residence time in beagle dog at 5 mg/kg, po followed by activated charcoal administration 0.25 hrs post compound dosing; type: ADME, organism-based, Canis lupus familiaris; set-up: dose 5 mg/kg, route oral; conditions: in vivo
[22] = Oral bioavailability in beagle dog at 5 mg/kg followed by activated charcoal administration 0.25 hrs post compound dosing; type: ADME, organism-based, Canis lupus familiaris; conditions: in vivo
[23] = AUC (0 to 24 hrs) in beagle dog at 5 mg/kg, po followed by activated charcoal administration 1 hr post compound dosing; type: ADME, organism-based, Canis lupus familiaris; set-up: time < 24 hr, dose 5 mg/kg, route oral; conditions: plasma
[24] = Cmax in beagle dog at 5 mg/kg, po followed by activated charcoal administration 1 hr post compound dosing; type: ADME, organism-based, Canis lupus familiaris; set-up: dose 5 mg/kg, route oral; conditions: in vivo
[25] = Plasma concentration in beagle dog at 5 mg/kg, po followed by activated charcoal administration 1 hr post compound dosing measured at 8 hrs; type: ADME, organism-based, Canis lupus familiaris; set-up: dose 5 mg/kg, route oral
[26] = Half life in beagle dog at 5 mg/kg, po followed by activated charcoal administration 1 hr post compound dosing; type: ADME, organism-based, Canis lupus familiaris; set-up: dose 5 mg/kg, route oral; conditions: in vivo
[27] = Apparent oral clearance in beagle dog at 5 mg/kg, po followed by activated charcoal administration 1 hr post compound dosing; type: ADME, organism-based, Canis lupus familiaris; set-up: dose 5 mg/kg, route oral; conditions: in vivo
[28] = Oral steady-state volume of distribution in beagle dog at 5 mg/kg followed by activated charcoal administration 1 hr post compound dosing; type: ADME, organism-based, Canis lupus familiaris; set-up: dose 5 mg/kg; conditions: in vivo, read-out: Vss/F
[29] = Mean residence time in beagle dog at 5 mg/kg, po followed by activated charcoal administration 1 hr post compound dosing; type: ADME, organism-based, Canis lupus familiaris; set-up: dose 5 mg/kg, route oral; conditions: in vivo
[30] = Oral bioavailability in beagle dog at 5 mg/kg followed by activated charcoal administration 1 hr post compound dosing; type: ADME, organism-based, Canis lupus familiaris; conditions: in vivo
[31] = AUC (0 to 24 hrs) in beagle dog at 5 mg/kg, po followed by activated charcoal administration 3 hrs post compound dosing; type: ADME, organism-based, Canis lupus familiaris; set-up: time < 24 hr, dose 5 mg/kg, route oral; conditions: plasma
[32] = Cmax in beagle dog at 5 mg/kg, po followed by activated charcoal administration 3 hrs post compound dosing; type: ADME, organism-based, Canis lupus familiaris; set-up: dose 5 mg/kg, route oral; conditions: in vivo
[33] = Plasma concentration in beagle dog at 5 mg/kg, po followed by activated charcoal administration 3 hrs post compound dosing measured at 8 hrs; type: ADME, organism-based, Canis lupus familiaris; set-up: dose 5 mg/kg, route oral

Cmax [1]: 2870 ng/mL
half-life [2]: 1.6 h
CL/F [3]: 5 mL/min/kg
Vd/F [4]: 0.7 L/kg
MRT [5]: 2.1 h
bioavailability [6]: 140%
AUC(0-t) at 24 h [7]: 78600 ng·h/mL
Cmax [8]: 9350 ng/mL
concentration at 8 h [9]: 5230 ng/mL
half-life [10]: 5.7 h
CL/F [11]: 1 mL/min/kg
Vd/F [12]: 0.5 L/kg
MRT [13]: 8.5 h
bioavailability [14]: 93%
AUC(0-t) at 24 h [15]: 59500 ng·h/mL
Cmax [16]: 8420 ng/mL
concentration at 8 h [17]: 2820 ng/mL
half-life [18]: 4.2 h
CL/F [19]: 1.37 mL/min/kg
Vd/F [20]: 0.5 L/kg
MRT [21]: 6.4 h
bioavailability [22]: 92%
AUC(0-t) at 24 h [23]: 63900 ng·h/mL
Cmax [24]: 8990 ng/mL
concentration at 8 h [25]: 3380 ng/mL
half-life [26]: 4 h
CL/F [27]: 1.28 mL/min/kg
Vd/F [28]: 0.5 L/kg
MRT [29]: 5.9 h
bioavailability [30]: 99%
AUC(0-t) at 24 h [31]: 49200 ng·h/mL
Cmax [32]: 8070 ng/mL
concentration at 8 h [33]: 2190 ng/mL
Structure (SMILES): COc1ccc(-n2nc(C(N)=O)c3c2C(=O)N(c2ccc(N4CCCCC4=O)cc2)CC3)cc1
